Read-outs that look alike come from different tables or passages of the source.
What was measured:
[1] = molecular target: T1, SUV39H2 (Homo sapiens (Human), UniProt Q9H5I1); test: biochemical; format: biochemical; details: 3H-SAM 100 nM, H3 Histone Peptide 350 nM, room temperature 3 hours
Experimental: Assay buffer (4 μL) was added into all the wells, including test compound and control wells (except for Sinefungin control wells), using the Multidrop Combi. The plate was centrifuged at 1000 rpm for 1 min. […] SUV39H2 (8 μL, final conc: optimized for each lot of the enzyme based on specific activity) was added by using the Multidrop Combi. The assay plate was centrifuged at 1000 rpm for 1 min. Assay buffer was used as background control, and incubated at room temperature for 3 hours. The reaction was stopped with 20 μL of 2.5 mg/mL Streptavidin SPA beads (final conc. 50 μg/well) in buffer using the Multidrop Combi and centrifuged for 1 min. The plate was loaded into the Trilux-Microbeta counter and a delayed read of 10 hours was made. The radioactive signal was measured at 1 min/well. Sinefungin and the internal standard compound were used as tool compounds to determine assay performance.
• The following calculations were made using the obtained CPM raw data: Software used: XLFit from IDBS.
For each test plate the following results were calculated: • Average, Standard Deviation, and % CV of Background Controls • Average, Standard Deviation, and % CV of Positive Controls • Z′ value of the plate • IC50 values of standard and test compounds (in nM) • R^2 value of fitted concentration response curve • Hill slope coefficient of fitted concentration response curve • Signal to Noise Ratio

[2] = system: A549; test: Cell-based assay, anti-proliferative activity (Cell Counting Kit-8, 72 hours); details: Homo sapiens, A549 cells, Cell Counting Kit-8
Summary of the method: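 Cells were seeded in 96-well plates and exposed to candidate inhibitors. Cellular growth was then determined with the colorimetric kit, and IC50 values were calculated from the growth data.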

[3] = system: CCD-18Co; test: as above; details: Homo sapiens; CCD-18Co cells, 72 hours, Cell Counting Kit-8; read-out: IC50 (μM) CCD-18Co
Summary of the method: (§1)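 Cells seeded at 2,000–3,000 per well and exposed 72 h to compound at 0–100 micro-M (2-fold series). Growth measured with CCK-8; IC50 taken as anti-proliferative indicator.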

[4] = system: HCT-116; test: as above; details: Homo sapiens; HCT-116 cells, 72 hours, Cell Counting Kit-8; read-out: IC50 (μM) HCT-116
Summary of the method: as §1

[5] = system: HFL1; test: as above; details: Homo sapiens; HFL1 cells, 72 hours, Cell Counting Kit-8; read-out: IC50 (μM) HFL1
Summary of the method: as §1

[6] = system: PC14; test: as above; details: Homo sapiens, PC-14; PC14 cells, 72 hours, Cell Counting Kit-8; read-out: IC50 (μM) PC14
Summary of the method: as §1

[7] = molecular target: T1, SUV39H2; details: read-out: IC50 (μM) Suv 39H2 assay; enzyme assay
[8] = 72 hours exposure, read-out: A549 IC50
[9] = 72 hours, read-out: IC50 (μM) A549

T1 sequence (Q9H5I1 whole entry): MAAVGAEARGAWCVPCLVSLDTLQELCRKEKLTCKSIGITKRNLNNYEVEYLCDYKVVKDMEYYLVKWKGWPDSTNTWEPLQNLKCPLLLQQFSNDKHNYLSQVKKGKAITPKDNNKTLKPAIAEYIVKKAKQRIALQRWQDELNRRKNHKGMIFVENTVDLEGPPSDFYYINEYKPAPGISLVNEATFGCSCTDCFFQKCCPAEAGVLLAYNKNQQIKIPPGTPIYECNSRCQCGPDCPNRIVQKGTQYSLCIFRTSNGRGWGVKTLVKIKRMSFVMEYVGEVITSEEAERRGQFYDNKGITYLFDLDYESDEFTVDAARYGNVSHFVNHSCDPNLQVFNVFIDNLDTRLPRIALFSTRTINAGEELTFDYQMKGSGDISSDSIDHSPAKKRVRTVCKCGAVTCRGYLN

Work on COc1cc(OC)c(-c2cn3ccc(N4C[C@H](NCc5ccncc5)[C@@H](O)C4)cc3n2)cc1Cl (relative stereo) [Example 439, trans-1-(2-(5-chloro-2,4-dimethoxyphenyl)imidazo[1,2-a]pyridin-7-yl)-4-((pyridin-4-ylmethyl)amino)pyrrolidin-3-ol] yielded an IC50 [1] of 6.76 nM and an IC50 [2, 8] of 10 µM.

COc1cc(OC)c(-c2cn3ccc(N4CC[C@H](NCc5ccccc5)C4)cc3n2)cc1Cl [Example 301, (S)—N-benzyl-1-(2-(5-chloro-2,4-dimethoxyphenyl)imidazo[1,2-a]pyridin-7-yl)pyrrolidin-3-amine] was tested, and the IC50 [2, 9] was 1.4 µM, the IC50 [3] was 1.1 µM and the IC50 [4] was 0.79 µM. For the same compound, the IC50 [5] was 0.69 µM, the IC50 [6] was 1.5 µM and the IC50 [7] was 0.0107 µM.

COc1cc(OC)c(-c2cn3ccc(N4CC[C@H](NCc5ccc(F)cc5)C4)cc3n2)cc1Cl [Example 302, (S)-1-(2-(5-chloro-2,4-dimethoxyphenyl)imidazo[1,2-a]pyridin-7-yl)-N-(4-fluorobenzyl)pyrrolidin-3-amine] showed an IC50 [2, 9] of 1.5 µM, an IC50 [3] of 1.1 µM and an IC50 [4] of 0.92 µM. It also gave an IC50 [5] of 0.72 µM, an IC50 [6] of 1.4 µM and an IC50 [7] of 0.0153 µM.

For COc1cc(OC)c(-c2cn3ccc(N4CC[C@H](NCc5ccc(C(F)(F)F)cc5)C4)cc3n2)cc1Cl [Example 303, (S)-1-(2-(5-chloro-2,4-dimethoxyphenyl)imidazo[1,2-a]pyridin-7-yl)-N-(4-(trifluoromethyl)benzyl)pyrrolidin-3-amine], the IC50 [2, 9] was 1 µM, the IC50 [3] was 0.86 µM and the IC50 [4] was 0.7 µM. The IC50 [5] was 0.68 µM, the IC50 [6] was 0.95 µM and the IC50 [7] was 0.0278 µM.

COc1cc(OC)c(-c2cn3ccc(N4CC[C@H](NCc5ccc([N+](=O)[O-])cc5)C4)cc3n2)cc1Cl [Example 304, (S)-1-(2-(5-chloro-2,4-dimethoxyphenyl)imidazo[1,2-a]pyridin-7-yl)-N-(4-nitrobenzyl)pyrrolidin-3-amine] was tested, and the IC50 [2, 9] was 0.87 µM, the IC50 [3] was 0.49 µM and the IC50 [4] was 0.52 µM. The IC50 [5] was 0.7 µM, the IC50 [6] was 0.88 µM and the IC50 [7] was 0.00888 µM.

Work on COc1cc(OC)c(-c2cn3ccc(N4CC[C@H](NCc5ccc(C)cc5)C4)cc3n2)cc1Cl [Example 305, (S)-1-(2-(5-chloro-2,4-dimethoxyphenyl)imidazo[1,2-a]pyridin-7-yl)-N-(4-methylbenzyl)pyrrolidin-3-amine] yielded an IC50 [2, 9] of 1.1 µM, an IC50 [3] of 0.82 µM and an IC50 [4] of 0.59 µM. The IC50 [5] was 0.67 µM, the IC50 [6] was 0.99 µM and the IC50 [7] was 0.0117 µM.

For COc1ccc(CN[C@H]2CCN(c3ccn4cc(-c5cc(Cl)c(OC)cc5OC)nc4c3)C2)cc1 [Example 306, (S)-1-(2-(5-chloro-2,4-dimethoxyphenyl)imidazo[1,2-a]pyridin-7-yl)-N-(4-methoxybenzyl)pyrrolidin-3-amine], the IC50 [2, 9] was 1.3 µM, the IC50 [3] was 1.4 µM and the IC50 [4] was 0.69 µM. The IC50 [5] was 0.72 µM, the IC50 [6] was 1.4 µM and the IC50 [7] was 0.00881 µM.

COc1cc(OC)c(-c2cn3ccc(N4CCN(C(C)=O)CC4)cc3n2)cc1Cl [Example 307, 1-(4-(2-(5-chloro-2,4-dimethoxyphenyl)imidazo[1,2-a]pyridin-7-yl)piperazin-1-yl)ethanone] was tested, and the IC50 [1] was 2 nM and the IC50 [2, 8] was 2.2 µM.

Compound COc1cc(OC)c(-c2cn3ccc(N4CCN(C(C)=O)CC4C)cc3n2)cc1Cl (centres unmarked) [Example 308, 1-(4-(2-(5-chloro-2,4-dimethoxyphenyl)imidazo[1,2-a]pyridin-7-yl)-3-methylpiperazin-1-yl)ethanone] has an IC50 [1] of 3.5 nM and an IC50 [2, 8] of 8.6 µM.

COc1cc(OC)c(-c2cn3ccc(N4CCN(C(C)=O)C(C)C4)cc3n2)cc1Cl (centres unmarked) [Example 309, 1-(4-(2-(5-chloro-2,4-dimethoxyphenyl)imidazo[1,2-a]pyridin-7-yl)-2-methylpiperazin-1-yl)ethanone] was tested, and the IC50 [1] was 1.97 nM and the IC50 [2, 8] was 2.1 µM.

With COCC(=O)N1CCN(c2ccn3cc(-c4cc(Cl)c(OC)cc4OC)nc3c2)CC1C (centres unmarked) [Example 310, 1-(4-(2-(5-chloro-2,4-dimethoxyphenyl)imidazo[1,2-a]pyridin-7-yl)-2-methylpiperazin-1-yl)-2-methoxyethanone] the IC50 [1] was 1.78 nM and the IC50 [2, 8] was 10 µM.

COc1cc(OC)c(-c2cn3ccc(N4CCN(S(C)(=O)=O)CC4C)cc3n2)cc1Cl (centres unmarked) [Example 311, 2-(5-chloro-2,4-dimethoxyphenyl)-7-(2-methyl-4-(methylsulfonyl)piperazin-1-yl)imidazo[1,2-a]pyridine] was tested, and the IC50 [1] was 4.94 nM and the IC50 [2, 8] was 3.8 µM.

Compound COc1cc(OC)c(-c2cn3ccc(N4CCN(S(C)(=O)=O)C(C)C4)cc3n2)cc1Cl (centres unmarked) [Example 312, 2-(5-chloro-2,4-dimethoxyphenyl)-7-(3-methyl-4-(methylsulfonyl)piperazin-1-yl)imidazo[1,2-a]pyridine] has an IC50 [1] of 3.81 nM and an IC50 [2, 8] of 2.5 µM.

With COc1cc(OC)c(-c2cn3ccc(N4CCN(C(=O)c5ccccc5O)CC4)cc3n2)cc1Cl [Example 314, (4-(2-(5-chloro-2,4-dimethoxyphenyl)imidazo[1,2-a]pyridin-7-yl)piperazin-1-yl)(2-hydroxyphenyl)methanone] the IC50 [1] was 7.29 nM and the IC50 [2, 8] was 1.7 µM.

Work on COc1cc(OC)c(-c2cn3ccc(N4CCN(C(=O)CCCCNC(=O)OC(C)(C)C)CC4)cc3n2)cc1Cl [Example 315, tert-butyl (5-(4-(2-(5-chloro-2,4-dimethoxyphenyl)imidazo[1,2-a]pyridin-7-yl)piperazin-1-yl)-5-oxopentyl)carbamate] yielded an IC50 [1] of 10.5 nM and an IC50 [2, 8] of 4.4 µM.

For COc1cc(OC)c(-c2cn3ccc(N[C@H]4CC[C@H](CN5CCN(c6ncccn6)CC5)CC4)cc3n2)cc1Cl [Example 316, 2-(5-chloro-2,4-dimethoxyphenyl)-N-((trans)-4-((4-(pyrimidin-2-yl)piperazin-1-yl)methyl)cyclohexyl)imidazo[1,2-a]pyridin-7-amine], the IC50 [1] was 77 nM and the IC50 [2, 8] was 0.7 µM.

COc1cc(OC)c(-c2cn3ccc(N4CCN(c5ccnc(NCCO)n5)CC4)cc3n2)cc1Cl [Example 334, 2-((4-(4-(2-(5-chloro-2,4-dimethoxyphenyl)imidazo[1,2-a]pyridin-7-yl)piperazin-1-yl)pyrimidin-2-yl)amino)ethanol] was tested, and the IC50 [1] was 21.3 nM.

Compound COc1cc(OC)c(-c2cn3ccc(N4CCN(Cc5cncc(C#N)c5)CC4)cc3n2)cc1Cl [Example 339, 5-((4-(2-(5-chloro-2,4-dimethoxyphenyl)imidazo[1,2-a]pyridin-7-yl)piperazin-1-yl)methyl)nicotinonitrile] has an IC50 [1] of 35.7 nM.

COc1cc(OC)c(-c2cn3ccc(N[C@H]4CC[C@@H](N(C)Cc5ccc(F)cc5)CC4)cc3n2)cc1Cl [Example 342] was tested, and the IC50 [1] was 38.8 nM.

With COc1cc(OC)c(-c2cn3ccc(N[C@H]4CC[C@@H](N(C)Cc5ccccc5F)CC4)cc3n2)cc1Cl [Example 347, bis(2,2,2-trifluoroacetate)] the IC50 [1] was 24.8 nM.

For COc1cc(OC)c(-c2cn3ccc(N4CCN(c5cnc(N6CCC(NS(=O)(=O)C7CC7)CC6)nc5)CC4)cc3n2)cc1Cl [Example 393, N-(1-(5-(4-(2-(5-chloro-2,4-dimethoxyphenyl)imidazo[1,2-a]pyridin-7-yl)piperazin-1-yl)pyrimidin-2-yl)piperidin-4-yl)cyclopropanesulfonamide], the IC50 [1] was 28.3 nM.

COc1cc(OC)c(-c2cn3ccc(N[C@H]4C[C@H]5CC[C@@H](C4)N5CC4CCCCC4)cc3n2)cc1Cl [Example 434, 2-(5-chloro-2,4-dimethoxyphenyl)-N-((1R,3r,5S)-8-(cyclohexylmethyl)-8-azabicyclo[3.2.1]octan-3-yl)imidazo[1,2-a]pyridin-7-amine] was tested, and the IC50 [1] was 88.7 nM.

Source: patent US10508109B2 (priority 2015, dated 2019)
